Reference: article PMC11783601, “Analogue-Sensitive Inhibition of Histone Demethylases Uncovers Member-Specific Function in Ribosomal Protein Synthesis” (Journal of the American Chemical Society, 2025)
Like-named read-outs stand apart in the source and are kept apart here.

Experiments:
Type in all cases: biochemical
[1] = biological target: T1, KDM4A-F185A (Homo sapiens, UniProt O75164, F185A); test: Coupled fluorescence end-point assay for IC50
T1 construct: human KDM4A-jmjC domain (catalytic domain of KDM4A); 6xHis (N); host or cells: E. coli BL21 (DE3)
T1 sequence (O75164 142-308 F185A limits assumed): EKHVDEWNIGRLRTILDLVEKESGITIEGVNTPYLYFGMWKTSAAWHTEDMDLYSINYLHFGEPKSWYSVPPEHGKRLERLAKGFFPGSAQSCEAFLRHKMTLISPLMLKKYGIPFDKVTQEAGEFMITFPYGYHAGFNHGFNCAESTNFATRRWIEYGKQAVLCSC
Description: To probe the efficacy of bulky NOGs against the mutant, the inhibitory constant at half-maximal (IC50) was determined by the coupled enzymatic assay using increasing amounts of the NOG analogue at fixed concentrations of cofactor and substrate.
NADH (ACROS, cat #124530050) was added to assay buffer (50 mM HEPES pH 8, 50 µM (NH4)2Fe(SO4)2, 1 mM L-ascorbic acid, 1 mM NAD+, 200 nM FDH, and 1 µM KDM4A) in varying concentrations (0-10 µM). The experiments were performed in 384-well white Corning plates. The fluorescence intensity was measured with excitation = 340 nm and emission = 490 nm on a TECAN Infinite M1000Pro. Triplicate values were taken for each concentration.
The set up and analysis for IC50 of L-Leu NOG against KDM4A F185A enzyme was similar to that described in the coupled fluorescence assay section, but adjusted to function as an end point assay. The assay composed of an enzyme cocktail (50mM HEPES pH 8.0, 75 µM (NH4)2Fe(SO4)2, 2 mM L-ascorbic acid, 1 mM NAD+, 200 nM FDH, 3 µM wild type KDM4A or KDM4A-F185A, and varying concentration of compounds (NOGs 6, 9 and 10) and a substrate cocktail (200 µM […]
2OG and 60 µM H3K9me3 peptide). […]
IC50 measurements were performed in triplicates. The data was plotted in GraphPad Prism to the equation Y=Bottom + (Top-Bottom)/(1+10^(X-LogIC50)), where Y = % Activity, and Bottom and Top being the lower and upper most plateaus of percent activity, respectively. […]

[2] = biological target: T2, KDM4C-F187A (Homo sapiens, UniProt Q9H3R0, F187A); test: MALDI-MS demethylase assay on H3K9me3 peptide; conditions: 50 µM (Fig S14)
T2 construct: 6xHis-tagged human KDM4C catalytic domain construct; 6xHis (N); made in house; host or cells: E. coli BL21 [DE3] star
Description: (§1) We next tested the inhibitory potential of 6 against these proteins using H3K9me3 peptide substrate and analyzed it by MALDI-MS. […] We subsequently examined the ability of asKDM4 variants to demethylate full-length histones extracted from mammalian cells. HEK293T cells were cultured in the presence of 10 μM n-octyl IOX1, a broad-spectrum inhibitor of demethylases,[41],[42] to generate a hypermethylated proteome (Figure S19). The extracted histone was incubated with the as variants individually, each with or without 6, and the extent of demethylation was analyzed by Western blot using the H3K9me3-specific antibody. […]
(§2) assay (Biorad) kit with BSA concentrations as a standard. […]
(§3) 8. Demethylase activity of the wild type and mutant KDM4 proteins on peptide substrate To monitor enzymatic activity, a demethylase activity assay was optimized and then observed through MALDI-TOF.7 Each histone demethylase assay sample included either wild type or mutant enzyme (10µM KDM4A, 7.5µM KDM4C, 10µM KDM4D, or 1µM KDM4E), 10 µM peptide, 200 µM 2OG, 50 mM Tris pH 8, […], 0-200µM NOG analogue, and 2 mM L-ascorbic acid with a total assay volume of 10 µL. Fe(II) supplement and L-ascorbic acid […]
(§4) Lastly, the 2OG and peptide were […]
(§5) positive mode and analyzed on Bruker FlexAnalysis software. The percent demethylated peptide […]
(§6) the multiple demethylation events on the peptide. […]

[3] = biological target: T3, KDM4D-F189A (Homo sapiens, UniProt Q6B0I6, F189A); test: MALDI-MS demethylase assay on H3K9me3 peptide; conditions: 50 µM (Fig S15)
T3 construct: human KDM4B and KDM4D jmjC catalytic domain for bacterial; Strep II (N); made in house; host or cells: E. coli Rosetta [DE3]
Description: as §1, §2, §3, §4, §5, §6

[4] = biological target: T4, KDM4E-F186A (Homo sapiens, UniProt B2RXH2, F186A); test: MALDI-MS demethylase assay on H3K9me3 peptide
T4 construct: we recombinantly expressed the catalytic domains of 12 wild type dioxygenases, in addition to KDM4A-E; 6xHis (N); host or cells: E. coli BL21 (DE3)
Description: as §1, §2, §3, §4, §5, §6

[5] = biological target: T5, wild type KDM4C (Homo sapiens, UniProt Q9H3R0); test: MALDI-MS demethylase assay on H3K9me3 peptide
T5 construct: 6xHis-tagged human KDM4C catalytic domain construct; 6xHis (N); made in house; host or cells: E. coli BL21 [DE3] star
Description: as §1, §2, §3, §4, §5, §6

[6] = biological target: T6, wild type KDM4D (Homo sapiens, UniProt Q6B0I6); test: MALDI-MS demethylase assay on H3K9me3 peptide
T6 construct: human KDM4B and KDM4D jmjC catalytic domain for bacterial; Strep II (N); made in house; host or cells: E. coli Rosetta [DE3]
Description: as §1, §2, §3, §4, §5, §6

[7] = biological target: T7, wild type KDM4E (Homo sapiens, UniProt B2RXH2); test: MALDI-MS demethylase assay on H3K9me3 peptide
T7 construct: we recombinantly expressed the catalytic domains of 12 wild type dioxygenases, in addition to KDM4A-E; 6xHis (N); host or cells: E. coli BL21 (DE3)
Description: as §1, §2, §3, §4, §5, §6

[8] = biological target: T8, ALKBH5 (Homo sapiens, UniProt Q6P6C2); test: MALDI-based assay on m6A RNA substrate; conditions: MALDI-TOF, m6A oligonucleotide
T8 construct: we recombinantly expressed the catalytic domains of 12 wild type dioxygenases; His; made in house; host or cells: E. coli BL21 (DE3)
Description: (§7) MALDI-based assay for FTO and ALKBH5: To determine the enzymatic activity of FTO and
(§8) ALKBH5 recombinant proteins in the presence of L-Leu NOG 6, a previously published methods
(§9) were utilized.15, 18 Briefly,10 µM of each protein was incubated in the presence of 10 µM RNA
(§10) 7.5, 150 mM KCl, 50 µM L-Leu NOG or equivalent volume of water in 10 µL aliquots. The
(§11) samples were placed on ice for 10 minutes followed by addition of 200 µM 2OG or equivalent
(§12) volume of water. After incubation at 37 °C for 30 minutes, samples were desalted with 3 µL of BT
(§13) spotted on a MALDI plate with 1uL sample and 1uL of 3-HPA matrix and monitored with Bruker
(§14) FlexControl in the reflectron negative mode and analyzed on Bruker FlexAnalysis software.

[9] = biological target: T9, FTO (Homo sapiens, UniProt Q9C0B1); test: MALDI-based assay on m6A RNA substrate; conditions: MALDI-TOF, m6A oligonucleotide
T9 construct: we recombinantly expressed the catalytic domains of 12 wild type dioxygenases; His (N); made in house; host or cells: E. coli BL21 (DE3)
Description: as §7, §8, §9, §10, §11, §12, §13, §14

T5 sequence (Q9H3R0 144-310 limits assumed): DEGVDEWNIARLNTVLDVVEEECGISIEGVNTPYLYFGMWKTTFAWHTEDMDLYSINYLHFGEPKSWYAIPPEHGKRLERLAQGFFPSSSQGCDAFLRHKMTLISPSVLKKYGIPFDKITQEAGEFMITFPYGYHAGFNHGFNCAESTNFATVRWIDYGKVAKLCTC
T2 sequence (Q9H3R0 144-310 F187A limits assumed): as the sequence (Q9H3R0 144-310 limits assumed) above, with F44A counted along it
T3 sequence (Q6B0I6 146-312 F189A limits assumed): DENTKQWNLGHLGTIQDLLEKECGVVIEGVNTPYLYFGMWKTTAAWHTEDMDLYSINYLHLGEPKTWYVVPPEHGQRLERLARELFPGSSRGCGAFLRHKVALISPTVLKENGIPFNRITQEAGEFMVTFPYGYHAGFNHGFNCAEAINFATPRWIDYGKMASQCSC
T6 sequence (Q6B0I6 146-312 limits assumed): as the sequence (Q6B0I6 146-312 F189A limits assumed) above, with A44F counted along it
T8 sequence (Q6P6C2 67-394 limits assumed): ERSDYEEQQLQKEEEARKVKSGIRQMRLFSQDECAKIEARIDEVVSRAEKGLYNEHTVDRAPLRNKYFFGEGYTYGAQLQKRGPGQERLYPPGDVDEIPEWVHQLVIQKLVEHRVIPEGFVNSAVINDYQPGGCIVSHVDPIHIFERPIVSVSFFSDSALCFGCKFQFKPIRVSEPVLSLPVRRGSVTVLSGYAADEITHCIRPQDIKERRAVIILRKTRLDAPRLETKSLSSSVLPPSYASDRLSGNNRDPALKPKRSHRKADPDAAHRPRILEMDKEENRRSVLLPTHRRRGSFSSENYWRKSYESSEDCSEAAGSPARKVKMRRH
T7 sequence (B2RXH2 143-309 limits assumed): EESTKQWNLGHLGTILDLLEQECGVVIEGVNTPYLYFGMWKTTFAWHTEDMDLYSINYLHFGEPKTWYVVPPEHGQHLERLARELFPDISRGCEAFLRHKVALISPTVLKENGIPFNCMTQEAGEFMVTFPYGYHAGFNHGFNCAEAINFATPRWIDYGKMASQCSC
T4 sequence (B2RXH2 143-309 F186A limits assumed): as the sequence (B2RXH2 143-309 limits assumed) above, with F44A counted along it
T9 sequence (Q9C0B1 32-327 limits assumed): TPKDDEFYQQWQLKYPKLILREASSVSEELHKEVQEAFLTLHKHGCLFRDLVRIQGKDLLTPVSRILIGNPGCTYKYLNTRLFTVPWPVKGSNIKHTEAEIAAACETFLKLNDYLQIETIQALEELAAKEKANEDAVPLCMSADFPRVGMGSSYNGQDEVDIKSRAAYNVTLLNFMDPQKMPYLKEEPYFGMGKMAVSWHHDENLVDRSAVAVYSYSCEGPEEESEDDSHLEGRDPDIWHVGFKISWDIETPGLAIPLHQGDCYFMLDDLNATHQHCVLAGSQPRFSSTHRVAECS

Q: Which results are given for `CC(C)CC(NC(=O)C(=O)O)C(=O)O` (stereo not drawn) [compound 6, N-oxalyl leucine]?
A: IC50 ([1]; dose-dependent inhibition of F185A, 200 µM 2OG, 60 µM H3K9me3 peptide): 0.7 ± 0.1 µM; IC50 ([1]; time-dependent inhibition of F185A, 1 hour): 0.7 ± 0.1 µM; IC50 ([1]; time-dependent inhibition of F185A, 2 hour): 1.2 ± 0.2 µM; IC50 ([1]; time-dependent inhibition of F185A, 3 hour): 1.5 ± 0.3 µM; IC50 ([1]; time-dependent inhibition of F185A, 4 hour): 1.8 ± 0.5 µM; IC50 ([1]; time-dependent inhibition of F185A, 5 hour (text: monitored over more than 5 h)): 2.2 ± 0.5 µM; inhibition of KDM4C-F187A [2]: significantly inhibited; inhibition of KDM4C-F187A ([2]; listed as NOG 6): inhibits the mutant completely; inhibition of KDM4D-F189A [3]: significantly inhibited; inhibition of KDM4D-F189A ([3]; listed as NOG 6): inhibits the mutant completely; inhibition of KDM4E-F186A [4]: significantly inhibited; inhibition of wild type KDM4C [5]: fully refractory; inhibition of wild type KDM4C ([5]; listed as NOG 6): does not inhibit; inhibition of wild type KDM4D [6]: fully refractory; inhibition of wild type KDM4D ([6]; listed as NOG 6): does not inhibit; inhibition of wild type KDM4E [7]: fully refractory; inhibition of ALKBH5 [8]: No inhibition; inhibition of FTO [9]: No inhibition
